Measurements taken from US20150105252A1, “SUBSTITUTED PYRAZOLES AS HERBICIDES” (E I DU PONT DE NEMOURS AND COMPANY, priority 2013, published 2015).

Key:
barnyardgrass [1] = assay: Test B flood; format: in vivo, Echinochloa crus-galli; settings: 250 g ai/ha, visual rating on 0 to 100 scale (0 no effect, 100 complete control), 13 to 15 days
Summary of the method: (§1)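 Each compound is applied to the floodwater of pots holding 2-leaf seedlings, water standing 3 cm over the soil throughout. Plants stay in a greenhouse 13 to 15 days before visual scoring against controls from 0 (no effect) to 100 (complete control).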

wheat [2] = assay: Test A preemergence; format: in vivo, Triticum aestivum; settings: preemergence; for Wheat plant response rating (0 to 100 scale): 125 g ai/ha, visual injury approx. 10 days after treatment
Summary of the method: (§2)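 Growth medium: loam soil blended with sand. Preemergence treatment used a directed soil spray right after planting; postemergence treatment targeted seedlings at one to two leaves (2–10 cm height). Response was judged by eye relative to untreated plants about 10 days later on a 0–100 control scale.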

ducksalad = assay: Test B flood; format: in vivo, Heteranthera limosa; settings: 250 g ai/ha, visual rating on 0 to 100 scale (0 no effect, 100 complete control), 13 to 15 days
Summary of the method: as §1

foxtail, giant [3] = assay: Test A postemergence; format: in vivo, Setaria faberii; settings: Postemergence
Summary of the method: as §2

velvetleaf [4] = assay: Test A postemergence; format: in vivo, Abutilon theophrasti; settings: Postemergence
Summary of the method: as §2

barnyardgrass [5] = assay: Test A postemergence; format: in vivo, Echinochloa crus-galli; settings: Postemergence
Summary of the method: as §2

rice = assay: Test B flood; format: in vivo, Oryza sativa; settings: 250 g ai/ha, visual rating on 0 to 100 scale (0 no effect, 100 complete control), 13 to 15 days
Summary of the method: as §1

corn [6] = assay: Test A preemergence; format: in vivo, Zea mays; settings: preemergence; for Corn plant response rating (0 to 100 scale): 125 g ai/ha, visual injury approx. 10 days after treatment; for Corn plant response rating: 500 g ai/ha
Summary of the method: as §2

barnyardgrass [7] = assay: Test A preemergence; format: in vivo, Echinochloa crus-galli; settings: preemergence; for Barnyardgrass plant response rating (0 to 100 scale, 0 is no effect, 100 is complete control): 125 g ai/ha, visual injury approx. 10 days after treatment; for Barnyardgrass plant response rating: 500 g ai/ha, 0 to 100 scale (0 no effect, 100 complete control)
Summary of the method: as §2

velvetleaf [8] = assay: Test A preemergence; format: in vivo, Abutilon theophrasti; settings: preemergence; for Velvetleaf plant response rating (0 to 100 scale): 125 g ai/ha, visual injury approx. 10 days after treatment
Summary of the method: as §2

pigweed [9] = assay: Test A preemergence; format: in vivo, Amaranthus retroflexus; settings: preemergence; for Pigweed plant response rating (0 to 100 scale): 125 g ai/ha, visual injury approx. 10 days after treatment
Summary of the method: as §2

foxtail, giant [10] = assay: Test A preemergence; format: in vivo, Setaria faberii; settings: preemergence; for Foxtail, Giant plant response rating (0 to 100 scale): 125 g ai/ha, visual injury approx. 10 days after treatment; for Foxtail, Giant plant response rating: 500 g ai/ha
Summary of the method: as §2

corn [11] = assay: Test A postemergence; format: in vivo, Zea mays; settings: Postemergence
Summary of the method: as §2

wheat [12] = assay: Test A postemergence; format: in vivo, Triticum aestivum; settings: Postemergence
Summary of the method: as §2

pigweed [13] = assay: Test A postemergence; format: in vivo, Amaranthus retroflexus; settings: Postemergence
Summary of the method: as §2

crabgrass, large [14] = assay: Test A preemergence; format: in vivo, Digitaria sanguinalis; settings: preemergence; for Crabgrass, Large plant response rating (0 to 100 scale): 125 g ai/ha, visual injury approx. 10 days after treatment; for Crabgrass, Large plant response rating: 500 g ai/ha
Summary of the method: as §2

morningglory [15] = assay: Test A preemergence; format: in vivo, Ipomoea spp.; settings: preemergence; for Morningglory plant response rating (0 to 100 scale): 125 g ai/ha, visual injury approx. 10 days after treatment
Summary of the method: as §2

morningglory [16] = assay: Test A postemergence; format: in vivo, Ipomoea spp.; settings: Postemergence
Summary of the method: as §2

sedge, umbrella = assay: Test B flood; format: in vivo, Cyperus difformis; settings: 250 g ai/ha, visual rating on 0 to 100 scale (0 no effect, 100 complete control), 13 to 15 days
Summary of the method: as §1

crabgrass, large [17] = assay: Test A postemergence; format: in vivo, Digitaria sanguinalis; settings: Postemergence
Summary of the method: as §2

[18] = 125 g ai/ha, 0 to 100 scale, 0 no effect, 100 complete control
[19] = 500 g ai/ha, 0 to 100 scale (0 no effect, 100 complete control)
[20] = visual injury after approx. 10 days, 0 to 100 scale (0 no effect, 100 complete control)
[21] = 500 g ai/ha, visual injury, 0 to 100 scale, approx. 10 days
[22] = visual injury, 0 to 100 scale, approx. 10 days

With `CCCNC(=O)c1cc(CC)n(Cc2cc(C(F)(F)C(F)(F)F)nn2C)n1` [Compound 229] the “Plant response rating, Barnyardgrass” value (barnyardgrass [1]) was 60, the “Wheat plant response rating (0 to 100 scale)” value (wheat [2]) was 20 and the “Plant response rating, Ducksalad” value (ducksalad) was 100. The “Foxtail, Giant plant response rating” value (foxtail, giant [3]; [18]) was 60, the “Foxtail, Giant plant response rating” value (foxtail, giant [3]; [19]) was 90 and the “Velvetleaf plant response rating” value (velvetleaf [4]; [18]) was 50. For the same molecule, the “Velvetleaf plant response rating” value (velvetleaf [4]; [19]) was 80, the “Barnyardgrass plant response rating” value (barnyardgrass [5]; [18]) was 50 and the “Barnyardgrass plant response rating” value (barnyardgrass [5]; [19]) was 90. The “Plant response rating, Rice” value (rice) was 40, the “Corn plant response rating (0 to 100 scale)” value (corn [6]) was 10 and the “Corn plant response rating” value (corn [6]; [20]) was 50. For the same molecule, the “Barnyardgrass plant response rating (0 to 100 scale, 0 is no effect, 100 is complete control)” value (barnyardgrass [7]) was 50, the “Barnyardgrass plant response rating” value (barnyardgrass [7]; visual injury after approx. 10 days) was 100 and the “Velvetleaf plant response rating (0 to 100 scale)” value (velvetleaf [8]) was 40. The “Pigweed plant response rating (0 to 100 scale)” value (pigweed [9]) was 100, the “Foxtail, Giant plant response rating (0 to 100 scale)” value (foxtail, giant [10]) was 90 and the “Foxtail, Giant plant response rating” value (foxtail, giant [10]; [20]) was 100. The “Corn plant response rating” value (corn [11]; [18]) was 40, the “Corn plant response rating” value (corn [11]; [19]) was 70 and the “Wheat plant response rating” value (wheat [12]; [18]) was 40. For the same molecule, the “Wheat plant response rating” value (wheat [12]; [19]) was 70, the “Pigweed plant response rating” value (pigweed [13]; [18]) was 90 and the “Pigweed plant response rating” value (pigweed [13]; [19]) was 100. The “Crabgrass, Large plant response rating (0 to 100 scale)” value (crabgrass, large [14]) was 100, the “Crabgrass, Large plant response rating” value (crabgrass, large [14]; [20]) was 100 and the “Morningglory plant response rating (0 to 100 scale)” value (morningglory [15]) was 50. The “Morningglory plant response rating” value (morningglory [16]; [18]) was 70, the “Morningglory plant response rating” value (morningglory [16]; [19]) was 100 and the “Plant response rating, Sedge, Umbrella” value (sedge, umbrella) was 95. The “Crabgrass, Large plant response rating” value (crabgrass, large [17]; [18]) was 50 and the “Crabgrass, Large plant response rating” value (crabgrass, large [17]; [19]) was 90.

`CCONC(=O)c1cc(C)n(Cc2ccnc(C(F)(F)F)c2)n1` [Compound 231] was tested, and the “Plant response rating, Barnyardgrass” value (barnyardgrass [1]) was 0, the “Wheat plant response rating (0 to 100 scale)” value (wheat [2]) was 0 and the “Wheat plant response rating” value (wheat [2]; [21]) was 0. The “Plant response rating, Ducksalad” value (ducksalad) was 0, the “Foxtail, Giant plant response rating” value (foxtail, giant [3]; [18]) was 0 and the “Foxtail, Giant plant response rating” value (foxtail, giant [3]; [19]) was 0. The “Velvetleaf plant response rating” value (velvetleaf [4]; [18]) was 0, the “Velvetleaf plant response rating” value (velvetleaf [4]; [19]) was 0 and the “Barnyardgrass plant response rating” value (barnyardgrass [5]; [18]) was 0. For the same molecule, the “Barnyardgrass plant response rating” value (barnyardgrass [5]; [19]) was 0, the “Plant response rating, Rice” value (rice) was 0 and the “Corn plant response rating (0 to 100 scale)” value (corn [6]) was 0. For the same molecule, the “Corn plant response rating” value (corn [6]; [22]) was 0, the “Barnyardgrass plant response rating (0 to 100 scale, 0 is no effect, 100 is complete control)” value (barnyardgrass [7]) was 0 and the “Barnyardgrass plant response rating” value (barnyardgrass [7]; visual injury, approx. 10 days) was 0. For the same molecule, the “Velvetleaf plant response rating (0 to 100 scale)” value (velvetleaf [8]) was 0, the “Velvetleaf plant response rating” value (velvetleaf [8]; [21]) was 0 and the “Pigweed plant response rating (0 to 100 scale)” value (pigweed [9]) was 0. For the same molecule, the “Pigweed plant response rating” value (pigweed [9]; [21]) was 0, the “Foxtail, Giant plant response rating (0 to 100 scale)” value (foxtail, giant [10]) was 0 and the “Foxtail, Giant plant response rating” value (foxtail, giant [10]; [22]) was 0. For the same molecule, the “Corn plant response rating” value (corn [11]; [18]) was 0, the “Corn plant response rating” value (corn [11]; [19]) was 10 and the “Wheat plant response rating” value (wheat [12]; [18]) was 0. For the same molecule, the “Wheat plant response rating” value (wheat [12]; [19]) was 0, the “Pigweed plant response rating” value (pigweed [13]; [18]) was 0 and the “Pigweed plant response rating” value (pigweed [13]; [19]) was 0. The “Crabgrass, Large plant response rating (0 to 100 scale)” value (crabgrass, large [14]) was 0, the “Crabgrass, Large plant response rating” value (crabgrass, large [14]; [22]) was 0 and the “Morningglory plant response rating (0 to 100 scale)” value (morningglory [15]) was 0. The “Morningglory plant response rating” value (morningglory [15]; [21]) was 0, the “Morningglory plant response rating” value (morningglory [16]; [18]) was 0 and the “Morningglory plant response rating” value (morningglory [16]; [19]) was 0. The “Plant response rating, Sedge, Umbrella” value (sedge, umbrella) was 0, the “Crabgrass, Large plant response rating” value (crabgrass, large [17]; [18]) was 0 and the “Crabgrass, Large plant response rating” value (crabgrass, large [17]; [19]) was 10.
